Entries after “also recorded” stand apart in the source; their conditions may differ.
Tested on: advance progressive cancers refractory to, or relapsed on, all conventional therapies
Experiment: ProGem1 dose escalation clinical study of NUC-1031
Type: in vivo, human
Set-up: CA125 level: unit not given here
Text: The following data were generated in clinical studies of NUC-1031 in human patients with advance progressive cancers that are refractory to, or have relapsed on, all conventional therapies that have been used to date. The results clearly illustrate the ability of NUC-1031 to successfully treat refractory cancers.
Although the primary objectives of the dose escalation part of the study were to determine the Recommended Phase II Dose (RP2D) and safety profile, secondary objectives included determining the PK profile, however effective treatment of patients with a range of refractory cancers has also been observed as part of this study.
A total of 68 patients have been entered into this dose escalation study, of which 49 were evaluable for clinical response in that they have received at least 2 Cycles of NUC-1031 and were therefore eligible for a RECIST 1.1 assessment.
NUC-1031 was administered as a 5 to 30 minute intravenous slow bolus injection. • Schedule A: NUC-1031 was administered on days 1, 8, 15 of a 4 weekly Cycle. • Schedule B: NUC-1031 was administered on days 1, 5, 8, 12, 15, 19, of a 4 weekly Cycle. Evaluable Patients [n=49]
Evaluable patients were patients that received ≥2 Cycles of NUC-1031 and were therefore eligible for a RECIST 1.1 assessment at the end of Cycle 2. Where the disease response duration, measured in months, is followed by a “+” this indicates ongoing disease control as of the latest cut-off date.

[1] = Patient 040, cholangiocarcinoma, 1,000 then 900 mg/m^2 weekly
[2] = Patient 041, breast cancer, 900 then 825 mg/m^2 weekly
[3] = Patient 043, ovarian cancer, 900 then 750 mg/m^2 weekly
[4] = Patient 044, lung cancer, 900 then 825 mg/m^2 weekly
[5] = Patient 046, adrenal carcinoma, 1,000, 900, 750, then 625 mg/m^2 weekly
[6] = Patient 048, ovarian cancer (granulosa cell tumour), 1,000 reduced stepwise to 625 mg/m^2 weekly
[7] = Patient 052 (204), oesophageal cancer, 900 then 825 mg/m^2 weekly
[8] = Patient 057 (209), ovarian cancer, 900, 825, then 750 mg/m^2 weekly
[9] = Patient 058 (210), lung cancer, 825 then 750 mg/m^2 weekly
[10] = Patient 059 (211), cervical cancer, 825, 750, then 625 mg/m^2 weekly
[11] = Patient 061 (213), colorectal cancer, 825 mg/m^2 weekly
[12] = Patient 063 (215), ovarian cancer, 825, 750, then 625 mg/m^2 weekly
[13] = evaluable patients n = 49, RECIST 1.1

C[C@H](NP(=O)(OC[C@H]1O[C@@H](n2ccc(N)nc2=O)C(F)(F)[C@@H]1O)Oc1ccccc1)C(=O)OCc1ccccc1 (stereo partly drawn) [NUC-1031, 2′-deoxy-2′,2′-difluoro-D-cytidine-5′-O-[phenyl (benzoxy-L-alaninyl)] phosphate]
Best response to RECIST [1]: Stable Disease
Duration of response to RECIST [1]: 4 months
Tumour volume (Patient 040, cholangiocarcinoma, end of Cycle 2 CT scan (85 at base)): 82.1
CA19.9 level (Patient 040, cholangiocarcinoma, on 4th June (664 at baseline)): 155
Adverse events (grade) (Patient 041, breast cancer, 900 mg/m^2 weekly, Cycle 3): fatigue (G3)
Best response to RECIST [2]: Stable Disease
Duration of response to RECIST [2]: 4 months
CA 15.3 tumour marker (Patient 041, breast cancer, at C2 (726 at base)): 845
CA 15.3 tumour marker (Patient 041, breast cancer, on 19 May 2014 (726 at base)): 824
Best response to RECIST (Patient 042, cholangiocarcinoma, 900 mg/m^2 weekly): Progressive Disease
Adverse events (grade) (Patient 042, cholangiocarcinoma, 900 mg/m^2 weekly, days 3-5 following study drug): delayed onset fatigue (G2)
Reduction in tumour volume of primary target lesion (Patient 042, cholangiocarcinoma, end of Cycle 2 CT scan): 9%
Adverse events (grade) [3]: delayed onset fatigue (G2); also recorded: Leg oedema developed to G3
Best response to RECIST [3]: Stable Disease
Duration of response to RECIST [3]: 13 months
CA125 level (Patient 043, ovarian cancer, beginning of Cycle 2 (1.099 at baseline as printed)): 783
Reduction in tumour volume from baseline (Patient 043, ovarian cancer, end of Cycle 6 CT scan): 10%
CA125 level (Patient 043, ovarian cancer, on 15th July (1,099 at baseline)): 910
Volume of fluid drained from the pleural effusion (Patient 043, ovarian cancer, on treatment (was 300 ml per week)): 150 ml per week
Adverse events (grade) (Patient 044, lung cancer, 900 mg/m^2 weekly): G3 lung infection
Best response to RECIST [4]: Stable Disease
Duration of response to RECIST [4]: 5 months
Reduction in tumour volume (Patient 044, lung cancer, end of Cycle 2 CT scan): 10%
Best response to RECIST [5]: Stable Disease
Duration of response to RECIST [5]: 11 months
Adverse events (grade) (Patient 046, adrenal carcinoma, Cycle 1 at 1,000 mg/m^2, following Cycle 8 D1 at 900 mg/m^2): delayed onset fatigue, nausea and vomiting (all G3); also recorded: neutropenia (G2)
Reduction in tumour volume from baseline (Patient 046, adrenal carcinoma, end of Cycle 6 CT scan): 12.6%
Best response to RECIST [6]: Stable Disease
Duration of response to RECIST [6]: 8 months
inhibin B (Patient 048, ovarian cancer, August (1,038 prior to study entry)): 1148
inhibin B (Patient 048, ovarian cancer, July 2014 (1,038 prior to study entry)): 1,106
inhibin B (Patient 048, ovarian cancer, September (1,038 prior to study entry)): 1053
Adverse events (grade) (Patient 048, ovarian cancer, following Cycle 1 Day 1 at 1,000 mg/m^2, neutropenia (G3) at Cycle 4): ALT, (G3, a DLT); also recorded: AST and neutropaenia (G2); also recorded: ALP (G1); also recorded: neutropenia (G3)
Adverse events (grade) (Patient 050 (202), oesophageal cancer, 900 mg/m^2, following Cycle 1 Day 1): ALT and fatigue, both G3
Best response to RECIST (Patient 050 (202), oesophageal cancer, 900 mg/m^2 weekly): Progressive Disease
Best response to RECIST (Patient 051 (203), anal cancer, 900 mg/m^2 weekly): Progressive Disease
Best response to RECIST [7]: Stable Disease
Duration of response to RECIST [7]: 5 months
Best response to RECIST (Patient 053 (205), colon cancer, 900 mg/m^2 weekly): Progressive Disease
Best response to RECIST (Patient 055 (207), ovarian cancer, 900, 825, then 625 mg/m^2 weekly): Stable Disease
CA125 level (Patient 055 (207), ovarian cancer, January 2015 (36 at baseline)): 24
Reduction in tumour volume from baseline (Patient 055 (207), ovarian cancer, end of Cycle 6 CT scan): 18%
Duration of response to RECIST (Patient 055 (207), ovarian cancer, ongoing, 900, 825, then 625 mg/m^2 weekly): ≥ 10 months
Adverse events (grade) (Patient 057 (209), ovarian cancer, 900 mg/m^2, Cycle 1 Day 15): anaemia and ascites both G3
Best response to RECIST [8]: Stable Disease
Duration of response to RECIST [8]: 5 months
Reduction in tumour volume from baseline (Patient 057 (209), ovarian cancer, end of Cycle 4 CT scan): 10%
Adverse events (grade) (Patient 058 (210), lung cancer, 825 mg/m^2, Cycle 1): G3 transaminitis (ALT), a DLT
Best response to RECIST [9]: Stable Disease
Duration of response to RECIST [9]: 4 months
Best response to RECIST [10]: Stable Disease
Duration of response to RECIST [10]: 7 months
Adverse events (grade) (Patient 059 (211), cervical cancer, thrombocytopenia in Cycle 1 at 825 mg/m^2, fatigue in Cycle 3 at 750 mg/m^2): thrombocytopenia (G3); also recorded: fatigue (G3)
Best response to RECIST (Patient 060 (212), pancreatic cancer, 825 mg/m^2 weekly): Progressive Disease
Adverse events (grade) (Patient 060 (212), pancreatic cancer, 825 mg/m^2 weekly, after Cycle 1): ALP, AST, ALT, all G3
Best response to RECIST [11]: Stable Disease
Duration of response to RECIST [11]: 3 months
Reduction in tumour volume (Patient 061 (213), colorectal cancer, end of Cycle 2 CT scan): 2%
Best response to RECIST [12]: Stable Disease
Duration of response to RECIST [12]: 3 months
Adverse events (grade) (Patient 063 (215), ovarian cancer, Cycle 3 at 750 mg/m^2): fatigue (G3)
Best response to RECIST (Patient 064 (216), trophoblastic cancer, 825 mg/m^2 weekly): Progressive Disease
Best response to RECIST (Patient 066 (218), colorectal cancer, 825, 750, then 625 mg/m^2 weekly): Stable Disease
Duration of response to RECIST (Patient 066 (218), colorectal cancer, ongoing, 825, 750, then 625 mg/m^2 weekly): ≥ 8 months
Reduction in tumour volume from baseline (Patient 066 (218), colorectal cancer, unscheduled CT scan on 30th December): 16%
Adverse events (grade) (Patient 067 (219), osteosarcoma, 825 mg/m^2 weekly, towards the end of each Cycle): neutropenia G2
Best response to RECIST (Patient 067 (219), osteosarcoma, 825 then 750 mg/m^2 weekly): Stable Disease
Increase (tumour) from baseline (Patient 067 (219), osteosarcoma, EOS CT scan): 1%
Duration of response to RECIST (Patient 067 (219), osteosarcoma, ongoing, 825 then 750 mg/m^2 weekly): ≥ 7 months
Best response to RECIST (Patient 068 (220), lung cancer, 825 mg/m^2 weekly): Progressive Disease
Best response to RECIST (Patient 069 (221), colorectal cancer, 825 reduced stepwise to 500 mg/m^2 weekly): Stable Disease
Adverse events (grade) (Patient 069 (221), colorectal cancer, Cycle 3 at 825 mg/m^2, after Cycle 4 D1 at 750 mg/m^2, Cycle 5 at 675 mg/m^2): neutropenia (G4); also recorded: neutropenia and leukopenia, G3; also recorded: neutropenia and leukopenia, G2
Response on PET scan (Patient 069 (221), colorectal cancer, PET scan on 30/10, 825 mg/m^2 weekly): Partial Response
Reduction in tumour volume from baseline (Patient 069 (221), colorectal cancer, end of C2 CT scan): 11%
Reduction in tumour volume from baseline (Patient 069 (221), colorectal cancer, end of C4 CT scan): 26%
Duration of response to RECIST (Patient 069 (221), colorectal cancer, ongoing, 825 reduced stepwise to 500 mg/m^2 weekly): ≥ 7 months
Best Overall Response: Partial Responses [13]: 5 (10%) patients (%)
Best Overall Response: Progressive Disease [13]: 11 (22%) patients (%)
Best Overall Response: Stable Disease [13]: 33 (67%) patients (%)
